Measurements: patent publication US11000033B2, “Ketone or oxime compound, and herbicide” (NISSAN CHEMICAL CORPORATION, priority 2014, dated 2021)

Key:
Format in all cases: in vivo
Monochoria vaginalis = experiment: Test Example 1: herbicidal activity, application before weed generation in submerged conditions (symbol C); conditions: application herbicide amount 320 g/ha
Summary of the method: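 Application before weed emergence: an aqueous dilution of the emulsion formulation was poured onto the surface of 4 cm-deep floodwater on the day of sowing. Effect was judged after 3 weeks (greenhouse, 25–30 °C).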

transplanted rice plant = experiment: Test Example 1: effect on crop, application before weed generation in submerged conditions (symbol a); conditions: application herbicide amount 320 g/ha
Summary of the method: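 Rice at 2.5 leaf stage transplanted into submerged soil (4 cm depth) sown with three weed species; herbicide applied before weed emergence.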

Leptochloa chinensis = experiment: Test Example 3: herbicidal effect by foliage application, Wagner pot (symbol D); conditions: application herbicide amount 320 g/ha; for D (Leptochloa chinensis) herbicidal effect grade: Table 24
Summary of the method: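 Foliar spray of water-diluted emulsion formulation at a predetermined herbicide amount onto 14-day-old plants in flooded alluvial soil (water depth 0.1–0.5 cm), greenhouse 25–30 °C; rice sown alongside. Scored 3 wk post-application on set criteria.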

[1] = test system: directly sowed rice plant; experiment: Test Example 3: effect on crop by foliage application, Wagner pot (symbol b); conditions: application herbicide amount 320 g/ha; for b (directly sowed rice plant) effect on crop grade: Table 24
Summary of the method: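 Plants are raised from seed in flooded paddy conditions: water stands 0.1–0.5 cm over alluvial soil, and the pot is kept in a greenhouse at 25–30 °C. Species sown are barnyardgrass (E. crus-galli var. crus-galli), Leptochloa chinensis, Cyperus difformis and rice.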

Digitaria ciliaris = experiment: Test Example 4: herbicidal effect by soil treatment (symbol F); conditions: for F: Digitaria ciliaris, herbicidal effect grade: 320 g/ha; for Herbicidal effect grade, F: Digitaria ciliaris: application herbicide amount 320 g/ha
Summary of the method: (§1)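 Seeds were sown in sterilized diluvial soil, covered with about 1.5 cm of soil, and the soil surface was sprayed with a water-diluted emulsion of the compound at a predetermined rate. Plants grew in a greenhouse at 25° C. to 30° C.; effects were scored visually 3 weeks after application.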

Abutilon theophrasti = experiment: Test Example 4: herbicidal effect by soil treatment (symbol M); conditions: for M: Abutilon theophrasti, herbicidal effect grade: 320 g/ha; for Herbicidal effect grade, M: Abutilon theophrasti: application herbicide amount 320 g/ha
Summary of the method: as §1

Amaranthus retroflexus = experiment: Test Example 4: herbicidal effect by soil treatment (symbol N); conditions: for N: Amaranthus retroflexus, herbicidal effect grade: 320 g/ha; for Herbicidal effect grade, N: Amaranthus retroflexus: application herbicide amount 320 g/ha
Summary of the method: as §1

rapeseed = experiment: Test Example 4: effect on crop by soil treatment (symbol g); conditions: for g: rapeseed, effect grade on crop: 320 g/ha; for Effect on crop grade, g: rapeseed: application herbicide amount 320 g/ha
Summary of the method: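 Crop seed is sown in spots together with several weed species in a box of sterilized diluvial soil. It is covered by about 1.5 cm of soil and kept in a greenhouse held between 25° C. and 30° C.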

Apera spica-venti = experiment: Test Example 5: herbicidal effect by foliage application, plastic box (symbol L); conditions: 320 g/ha, 3 weeks after application
Summary of the method: (§2)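 Leaf-applied emulsion, water-diluted to a preset herbicide dose, on two-week-old seedlings raised in a 25° C. to 30° C. greenhouse; injury rated at 3 weeks using earlier criteria.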

Galium spurium = experiment: Test Example 5: herbicidal effect by foliage application, plastic box (symbol Q); conditions: 320 g/ha, 3 weeks after application
Summary of the method: as §2

corn = experiment: Test Example 5: effect on crop by foliage application, plastic box (symbol c); conditions: 320 g/ha, 3 weeks after application
Summary of the method: (§3)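 Sterilized diluvial soil, plastic box (21 × 13 × 7 cm); spot sowing, ~1.5 cm soil cover; greenhouse 25–30° C.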

wheat = experiment: Test Example 5: effect on crop by foliage application, plastic box (symbol e); conditions: 320 g/ha, 3 weeks after application
Summary of the method: as §3

beet = experiment: Test Example 5: effect on crop by foliage application, plastic box (symbol f); conditions: 320 g/ha, 3 weeks after application
Summary of the method: as §3

CC(CC1CC(O)=C(c2c(C)cc(C)cc2C)C1=O)=NOCC[S+](C)[O-] (centres unmarked) [1-125]
Herbicidal effect grade, C: Monochoria vaginalis (Monochoria vaginalis): 1 (Herbicidal ratio of 5% or higher and lower than 20%) | Effect grade on crop, a: transplanted rice plant (transplanted rice plant): 5 (Herbicidal ratio of 90% or more (almost completely withered)) | herbicidal effect on D (Leptochloa chinensis), grade 0-5 (Leptochloa chinensis): 5 (Herbicidal ratio of 90% or more (almost completely withered)) | effect on crop b (directly sowed rice plant), grade 0-5 [1]: 5 (Herbicidal ratio of 90% or more (almost completely withered)) | F: Digitaria ciliaris, herbicidal effect grade (Digitaria ciliaris): 5 (Herbicidal ratio of 90% or more (almost completely withered)) | M: Abutilon theophrasti, herbicidal effect grade (Abutilon theophrasti): 0 (Herbicidal ratio of 5% or lower (almost no effect)) | N: Amaranthus retroflexus, herbicidal effect grade (Amaranthus retroflexus): 0 (Herbicidal ratio of 5% or lower (almost no effect)) | g: rapeseed, effect grade on crop (rapeseed): 0 (Herbicidal ratio of 5% or lower (almost no effect)) | L: Apera spica-venti, herbicidal effect (criteria 0-5) (Apera spica-venti): 5 (Herbicidal ratio of 90% or more (almost completely withered)) | Q: Galium spurium, herbicidal effect (criteria 0-5) (Galium spurium): 3 (Herbicidal ratio of 40% or higher and lower than 70%) | c: corn, effect on crop (criteria 0-5) (corn): 3 (Herbicidal ratio of 40% or higher and lower than 70%) | e: wheat, effect on crop (criteria 0-5) (wheat): 5 (Herbicidal ratio of 90% or more (almost completely withered)) | f: beet, effect on crop (criteria 0-5) (beet): 0 (Herbicidal ratio of 5% or lower (almost no effect))

C=C(C)CN(CC)C(=O)OC1=C(c2c(C)cc(C)cc2C)C(=O)C(CC(C)=NOC)C1 (centres unmarked) [1-130]
Herbicidal effect grade, C: Monochoria vaginalis (Monochoria vaginalis): 0 (Herbicidal ratio of 5% or lower (almost no effect)) | Effect grade on crop, a: transplanted rice plant (transplanted rice plant): 3 (Herbicidal ratio of 40% or higher and lower than 70%) | herbicidal effect on D (Leptochloa chinensis), grade 0-5 (Leptochloa chinensis): 5 (Herbicidal ratio of 90% or more (almost completely withered)) | effect on crop b (directly sowed rice plant), grade 0-5 [1]: 5 (Herbicidal ratio of 90% or more (almost completely withered)) | F: Digitaria ciliaris, herbicidal effect grade (Digitaria ciliaris): 0 (Herbicidal ratio of 5% or lower (almost no effect)) | M: Abutilon theophrasti, herbicidal effect grade (Abutilon theophrasti): 0 (Herbicidal ratio of 5% or lower (almost no effect)) | N: Amaranthus retroflexus, herbicidal effect grade (Amaranthus retroflexus): 0 (Herbicidal ratio of 5% or lower (almost no effect)) | g: rapeseed, effect grade on crop (rapeseed): 0 (Herbicidal ratio of 5% or lower (almost no effect)) | L: Apera spica-venti, herbicidal effect (criteria 0-5) (Apera spica-venti): 5 (Herbicidal ratio of 90% or more (almost completely withered)) | Q: Galium spurium, herbicidal effect (criteria 0-5) (Galium spurium): 0 (Herbicidal ratio of 5% or lower (almost no effect)) | c: corn, effect on crop (criteria 0-5) (corn): 1 (Herbicidal ratio of 5% or higher and lower than 20%) | e: wheat, effect on crop (criteria 0-5) (wheat): 2 (Herbicidal ratio of 20% or higher and lower than 40%) | f: beet, effect on crop (criteria 0-5) (beet): 0 (Herbicidal ratio of 5% or lower (almost no effect))

CON=C(C)CC1CC(OC(=O)c2nsc(Cl)c2Cl)=C(c2c(C)cc(C)cc2C)C1=O (centres unmarked) [1-099]
Herbicidal effect grade, C: Monochoria vaginalis (Monochoria vaginalis): 2 (Herbicidal ratio of 20% or higher and lower than 40%) | Effect grade on crop, a: transplanted rice plant (transplanted rice plant): 5 (Herbicidal ratio of 90% or more (almost completely withered)) | herbicidal effect on D (Leptochloa chinensis), grade 0-5 (Leptochloa chinensis): 5 (Herbicidal ratio of 90% or more (almost completely withered)) | effect on crop b (directly sowed rice plant), grade 0-5 [1]: 5 (Herbicidal ratio of 90% or more (almost completely withered)) | F: Digitaria ciliaris, herbicidal effect grade (Digitaria ciliaris): 5 (Herbicidal ratio of 90% or more (almost completely withered)) | M: Abutilon theophrasti, herbicidal effect grade (Abutilon theophrasti): 5 (Herbicidal ratio of 90% or more (almost completely withered)) | N: Amaranthus retroflexus, herbicidal effect grade (Amaranthus retroflexus): 3 (Herbicidal ratio of 40% or higher and lower than 70%) | g: rapeseed, effect grade on crop (rapeseed): 5 (Herbicidal ratio of 90% or more (almost completely withered)) | L: Apera spica-venti, herbicidal effect (criteria 0-5) (Apera spica-venti): 5 (Herbicidal ratio of 90% or more (almost completely withered)) | Q: Galium spurium, herbicidal effect (criteria 0-5) (Galium spurium): 3 (Herbicidal ratio of 40% or higher and lower than 70%) | c: corn, effect on crop (criteria 0-5) (corn): 5 (Herbicidal ratio of 90% or more (almost completely withered)) | e: wheat, effect on crop (criteria 0-5) (wheat): 5 (Herbicidal ratio of 90% or more (almost completely withered)) | f: beet, effect on crop (criteria 0-5) (beet): 1 (Herbicidal ratio of 5% or higher and lower than 20%)

COCCON=C(C)CC1CC(O)=C(c2c(C)cc(Br)cc2C)C1=O (centres unmarked) [9-017]
C (Monochoria vaginalis) herbicidal effect grade (Monochoria vaginalis): 0 (Herbicidal ratio of 5% or lower (almost no effect)) | a (transplanted rice plant) effect on crop grade (transplanted rice plant): 4 (Herbicidal ratio of 70% or higher and lower than 90%) | D (Leptochloa chinensis) herbicidal effect grade (Leptochloa chinensis): 5 (Herbicidal ratio of 90% or more (almost completely withered)) | b (directly sowed rice plant) effect on crop grade [1]: 5 (Herbicidal ratio of 90% or more (almost completely withered)) | Herbicidal effect grade, F: Digitaria ciliaris (Digitaria ciliaris): 4 (Herbicidal ratio of 70% or higher and lower than 90%) | Herbicidal effect grade, M: Abutilon theophrasti (Abutilon theophrasti): 0 (Herbicidal ratio of 5% or lower (almost no effect)) | Herbicidal effect grade, N: Amaranthus retroflexus (Amaranthus retroflexus): 0 (Herbicidal ratio of 5% or lower (almost no effect)) | Effect on crop grade, g: rapeseed (rapeseed): 0 (Herbicidal ratio of 5% or lower (almost no effect)) | L: Apera spica-venti, herbicidal effect grade (Apera spica-venti): 3 (Herbicidal ratio of 40% or higher and lower than 70%) | Q: Galium spurium, herbicidal effect grade (Galium spurium): 0 (Herbicidal ratio of 5% or lower (almost no effect)) | c: corn, effect on crop grade (corn): 5 (Herbicidal ratio of 90% or more (almost completely withered)) | e: wheat, effect on crop grade (wheat): 3 (Herbicidal ratio of 40% or higher and lower than 70%) | f: beet, effect on crop grade (beet): 0 (Herbicidal ratio of 5% or lower (almost no effect))

COCCON=C(CC1CC(O)=C(c2c(C)cc(-n3cc(Cl)cn3)cc2C)C1=O)C(C)C (centres unmarked) [9-022]
C (Monochoria vaginalis) herbicidal effect grade (Monochoria vaginalis): 0 (Herbicidal ratio of 5% or lower (almost no effect)) | a (transplanted rice plant) effect on crop grade (transplanted rice plant): 5 (Herbicidal ratio of 90% or more (almost completely withered)) | D (Leptochloa chinensis) herbicidal effect grade (Leptochloa chinensis): 5 (Herbicidal ratio of 90% or more (almost completely withered)) | b (directly sowed rice plant) effect on crop grade [1]: 5 (Herbicidal ratio of 90% or more (almost completely withered)) | Herbicidal effect grade, F: Digitaria ciliaris (Digitaria ciliaris): 5 (Herbicidal ratio of 90% or more (almost completely withered)) | Herbicidal effect grade, M: Abutilon theophrasti (Abutilon theophrasti): 0 (Herbicidal ratio of 5% or lower (almost no effect)) | Herbicidal effect grade, N: Amaranthus retroflexus (Amaranthus retroflexus): 0 (Herbicidal ratio of 5% or lower (almost no effect)) | Effect on crop grade, g: rapeseed (rapeseed): 0 (Herbicidal ratio of 5% or lower (almost no effect)) | L: Apera spica-venti, herbicidal effect grade (Apera spica-venti): 2 (Herbicidal ratio of 20% or higher and lower than 40%) | Q: Galium spurium, herbicidal effect grade (Galium spurium): 0 (Herbicidal ratio of 5% or lower (almost no effect)) | c: corn, effect on crop grade (corn): 2 (Herbicidal ratio of 20% or higher and lower than 40%) | e: wheat, effect on crop grade (wheat): 0 (Herbicidal ratio of 5% or lower (almost no effect)) | f: beet, effect on crop grade (beet): 0 (Herbicidal ratio of 5% or lower (almost no effect))
